Laboratory results: US7550511B2, “Compositions that bind antiterminator RNA and assay for screening for such compositions” (Ahio University, priority 2001, dated 2009)

Test system: 9-(2-aminopurine)-RNA II versus 9-(2-aminopurine)-RNA IV (T-box antiterminator model RNAs)
Test: Fluorescence assay, relative fluorescence ratio (RNA binding selectivity) at 1 mM ligand
Conditions: (F-Fo) RNA II / (F-Fo) RNA IV; <1.0 preferential binding for RNA IV, >1.0 for RNA II

NC(Cc1ccccc1)C(O)CO (stereo not shown) [Amino Alcohol 2, 3-amino-4-phenyl-butane-1,2-diol]
relative fluorescence ratio (rounded): 0.4
